Laboratory results from patent US20100093076A1, “SOLUBLE IL-27 RECEPTOR” (priority 2006, published 2010).

What was measured:
[1] = test system: total human PBMCs; experiment: IL-27 EC90 determination, phosphorylated STAT3 in total human PBMCs; format: cell-based; conditions: read-out: EC90 concentration
From the text: (§1) Whole mouse spleens were harvested from C57 B1/6 mice and washed two times with 1×PBS before being plated out at 2×10^5 cells/well in assay media (RPMI 1640 plus 10% fetal bovine serum) in 96-well, round-bottom tissue culture plates. Total human PBMC (peripheral blood mononuclear cells) were thawed from a frozen vial collected from a leukapherisis donation and washed two times with 1×PBS before being plated out at 10^6 cells/well in assay media in 96-well, round-bottom tissue culture plates. […] Following pre-incubation, treatments were added to the plates containing the cells and incubated together at 37° C. for 15 minutes.
(§2) Following incubation, cells were washed with ice-cold wash buffer (BIO-PLEX Cell Lysis Kit, BIO-RAD Laboratories, Hercules, Calif.) and put on ice to stop the reaction according to manufacturer's instructions. […]
(§3) Capture beads (BIO-PLEX Phospho-Stat3 Assay, BIO-RAD Laboratories) were combined with 50 μL of 1:1 diluted lysates and added to a 96-well filter plate according to manufacture's instructions (BIO-PLEX Phosphoprotein Detection Kit, BIO-RAD Laboratories). […] After the final wash, beads were resuspended in 125 μL/well of bead suspension buffer, shaken for 30 seconds, and read on an array reader (BIO-PLEX, BIO-RAD Laboratories) according to the manufacture's instructions. Data were analyzed using analytical software (BIO-PLEX MANAGER 3.0, BIO-RAD Laboratories). […]

[2] = test system: mouse spleens; experiment: IL-27 EC90 determination, phosphorylated STAT3 in mouse spleens; format: cell-based; conditions: read-out: EC90 concentration
From the text: as §1, §2, §3

huIL-27: Human IL-27 (R&D Systems) gave an EC90 [1] of 2 nM and an EC90 [2] of 2 nM.
